The record followed here is ChEMBL document CHEMBL6182861, “Structural modification of heptamethine indocyanine dyes with improved aqueous solubility and stability for photothermal therapy” (Eur J Med Chem, 2025).

For series [1], the system named is Mitochondrial membrane. Nature of the series: Inhibition of mitochondrial membrane potential in mouse 4T1 cells at 3.12 uM incubated for 24 hrs by flow cytometry. The class given is cell membranes.
Series [2] in a line: Photothermal stability of compound at 60 degreeC at 20 uM exposed to laser irradiation of 808 nm for 2.5 mins. The class given is physicochemical.
Series [3] concerns Mitochondrial membrane. Put plainly: Inhibition of mitochondrial membrane potential in human HepG2 cells at 3.12 uM preincubated for 4 hrs followed by exposure to laser irradiation of 808 nm for 2 mins and subsequent incubation for 20 hrs by Rh123 probe based CLSM. Conditions: time 1442.0 min. The format is cell membranes.
In series [4] the test system is Mitochondrial membrane. Nature of the series: Inhibition of mitochondrial membrane potential in human HepG2 cells at 3.12 uM incubated for 24 hrs by Rh123 probe based CLSM. The format is cell membranes.
For series [5], the system named is 4T1. Nature of the series: Induction of ROS generation in mouse 4T1 cells at 3.12 uM incubated for 4 hrs followed by exposure to laser irradiation of 808 nm for 2 mins by flow cytometry. Conditions: time 242.0 min. The class given is functional, cell-based. In general terms: A flow cytometer gives signals particle by particle.
For series [6], the system named is Mitochondrial membrane. Nature of the series: Inhibition of mitochondrial membrane potential in mouse 4T1 cells at 3.12 uM preincubated for 4 hrs followed by exposure to laser irradiation of 808 nm for 2 mins and subsequent incubation for 20 hrs by Rh123 probe based CLSM. The format is cell membranes. Conditions: time 1442.0 min.
Series [7] is described as follows: Drug uptake in human HepG2 cells assessed as increase in fluorescence intensity at 3.12 uM incubated for 4 hrs by CLSM. The class given is ADME, cell-based. The following applies: hepg2, 4 h.
Series [8] relates to Mitochondrial membrane. Put plainly: Inhibition of mitochondrial membrane potential in mouse 4T1 cells at 3.12 uM incubated for 24 hrs by Rh123 probe based CLSM. The class given is cell membranes.
In series [9] the test system is HepG2. Put plainly: Cytotoxicity against human HepG2 cells under dark condition at 3.12 uM incubated for 24 hrs by MTT assay. The class given is functional, cell-based. For orientation: Tetrazolium assays rely on reduction of a dye to a coloured formazan, in cell work by metabolically active cells.
The subject of series [10] is HepG2. Nature of the series: Induction of ROS generation in human HepG2 cells at 3.12 uM incubated for 4 hrs followed by exposure to laser irradiation of 808 nm for 2 mins by DCFH-DA probe based CLSM. The format is functional, cell-based. Conditions: time 242.0 min.
Series [11] concerns Mitochondrial membrane. Put plainly: Inhibition of mitochondrial membrane potential in mouse 4T1 cells assessed as green fluorescence at 3.12 uM preincubated for 4 hrs followed by exposure to laser irradiation of 808 nm for 2 mins and subsequent incubation for 20 hrs by JC-1 dye based analysis. The format is cell membranes. The following applies: time 1442.0 min.
Series [12] can be described thus: Photosensitizing property of compound assessed as generation of singlet-state oxygen by ESR spectrometry. The format is functional.
Series [13] relates to 4T1. Nature of the series: Induction of apoptosis in mouse 4T1 cells at 3.12 uM incubated for 4 hrs followed by exposure to laser irradiation of 808 nm for 2 mins by Annexin V-FITC/PI staining based flow cytometry. The class given is functional, cell-based. Conditions: time 242.0 min.
A short description of series [14]: Drug uptake in mouse 4T1 cells assessed as increase in fluorescence intensity at 3.12 uM incubated for 4 hrs by flow cytometry. The format is ADME, cell-based. Conditions: 4t1, 4 h.
Series [15] concerns HepG2. Put plainly: Induction of ROS generation in human HepG2 cells at 3.12 uM incubated for 4 hrs followed by exposure to laser irradiation of 808 nm for 2 mins by flow cytometry. The following applies: time 242.0 min. The format is functional, cell-based.
Series [16] can be described thus: Drug uptake in human HepG2 cells assessed as increase in fluorescence intensity at 3.12 uM incubated for 4 hrs by flow cytometry. The class given is ADME, cell-based. The following applies: hepg2, 4 h.
For series [17], the system named is HepG2. Put plainly: Induction of apoptosis in human HepG2 cells at 3.12 uM incubated for 4 hrs followed by exposure to laser irradiation of 808 nm for 2 mins by Annexin V-FITC/PI staining based flow cytometry. The class given is functional, cell-based. The following applies: time 242.0 min.
The nature of series [18]: Photosensitizing property of compound assessed as generation of singlet-state oxygen at 10 uM exposed to laser irradiation of 808 nm for 2 mins by SOSG probe based analysis. The class given is functional.
Series [19] concerns Mitochondrial membrane. Put plainly: Inhibition of mitochondrial membrane potential in human HepG2 cells at 3.12 uM preincubated for 4 hrs followed by exposure to laser irradiation of 808 nm for 2 mins and subsequent incubation for 20 hrs by flow cytometry. The following applies: time 1442.0 min. The class given is cell membranes.
The test system of series [20] is Mitochondrial membrane. Put plainly: Inhibition of mitochondrial membrane potential in human HepG2 cells at 3.12 uM incubated for 24 hrs by flow cytometry. The class given is cell membranes.
Series [21] relates to 4T1. Nature of the series: Induction of ROS generation in mouse 4T1 cells at 3.12 uM incubated for 4 hrs followed by exposure to laser irradiation of 808 nm for 2 mins by DCFH-DA probe based CLSM. The format is functional, cell-based. Conditions: time 242.0 min.
For series [22], the system named is 4T1. Put plainly: Cytotoxicity against mouse 4T1 cells under dark condition at 3.12 uM incubated for 24 hrs by MTT assay. The class given is functional, cell-based.
The nature of series [23]: Drug uptake in mouse 4T1 cells assessed as increase in fluorescence intensity at 3.12 uM incubated for 4 hrs by CLSM. The format is ADME, cell-based. Conditions: 4t1, 4 h.
Series [24] relates to Mitochondrial membrane. Nature of the series: Inhibition of mitochondrial membrane potential in human HepG2 cells assessed as green fluorescence at 3.12 uM preincubated for 4 hrs followed by exposure to laser irradiation of 808 nm for 2 mins and subsequent incubation for 20 hrs by JC-1 dye based analysis. The format is cell membranes. Conditions: time 1442.0 min.
The test system of series [25] is Mitochondrial membrane. Put plainly: Inhibition of mitochondrial membrane potential in mouse 4T1 cells at 3.12 uM preincubated for 4 hrs followed by exposure to laser irradiation of 808 nm for 2 mins and subsequent incubation for 20 hrs by flow cytometry. Conditions: time 1442.0 min. The format is cell membranes.
Series [26] is described as follows: Aqueous solubility of compound by absorbance based assay. The format is physicochemical. The following applies: buffer.
Series [27] concerns 4T1. Put plainly: Photothermal cytotoxicity against mouse 4T1 cells up to 25 uM preincubated for 4 hrs followed by exposure to laser irradiation of 808 nm for 2 mins and subsequent incubation for 20 hrs by MTT assay. The format is functional, cell-based.
The test system of series [28] is HepG2. Put plainly: Photothermal cytotoxicity against human HepG2 cells up to 25 uM preincubated for 4 hrs followed by exposure to laser irradiation of 808 nm for 2 mins and subsequent incubation for 20 hrs by MTT assay. The format is functional, cell-based. Conditions: time 1442.0 min.
Series [29] is described as follows: Photothermal property of compound assessed as increase in photothermal conversion efficiency at 20 uM exposed to laser irradiation of 808 nm for 2 mins. The class given is functional.

SMILES strings stand for the structures. Calls of active or inactive are those of the source. The calls are words filed in the database; no cut-off is given here.

For the compound `CN1/C(=C/C=C/C(C#N)=C/C=C/C2=[N+](C)c3ccccc3C2(C)C)C(C)(C)c2ccccc21.[I-]`, the inhibition entry in series [1] was “Active; Certain Degree Of Inhibition Was Observed”; in series [3] it was “Active; Significant Inhibition Was Observed”; in [4], “Active; Certain Degree Of Inhibition Was Observed”; in series [6], “Active; Significant Inhibition Was Observed”; in series [8], “Active; Certain Degree Of Inhibition Was Observed”; in series [19], “Active; Significant Inhibition Was Observed”. Further, the values for the inhibition result in series [20] and in series [25] were “Active; Certain Degree Of Inhibition Was Observed” and “Active; Significant Inhibition Was Observed”, respectively. The Stability entry in series [2] is listed as “Stable”. Further, the outcome in series [5], in series [9], in series [10], in [12], in [13] and in series [15] was Active. The result in series [17], in [18], in [21] and in series [22] was Active. For the same compound, the Drug uptake entry in [7], in [14], in [16] and in series [23] was “Active” throughout. The inhibition result in series [11] and in series [24] was “Active” in each case.

For `CN1/C(=C/C=C/C=C/C=C/C2=[N+](C)c3ccccc3C2(C)C)C(C)(C)c2ccccc21.[I-]`, the inhibition result is reported as “Active; Certain Degree Of Inhibition Was Observed” in series [1]; “Active; Significant Inhibition Was Observed” in [3]; “Active; Certain Degree Of Inhibition Was Observed” in series [4]; “Active; Significant Inhibition Was Observed” in series [6]; “Active; Certain Degree Of Inhibition Was Observed” in series [8]; “Active; Significant Inhibition Was Observed” in [19]. The values for the inhibition result in series [20] and in [25] were “Active; Certain Degree Of Inhibition Was Observed” and “Active; Significant Inhibition Was Observed”, respectively. Also, the Stability entry in series [2] was “Unstable”. The result in series [5], in series [10], in series [12], in series [13], in [15] and in [17] was Active. The result in series [18] and in series [21] was Active. In addition, the Drug uptake entry in series [7], in series [14], in series [16] and in series [23] was “Active” each time. Besides, the solubility entry in series [26] is “Insoluble”. Also, the result in series [27] and in series [28] was inactive.

With `COCCOCCOCCN1/C(=C/C=C/C(C#N)=C/C=C/C2=[N+](CCOCCOCCOC)c3ccccc3C2(C)C)C(C)(C)c2ccccc21.[I-]`, the inhibition entry was “Active; Certain Degree Of Inhibition Was Observed” in series [1]; “Active; Significant Inhibition Was Observed” in [3]; “Active; Certain Degree Of Inhibition Was Observed” in series [4]; “Active; Significant Inhibition Was Observed” in [6]; “Active; Certain Degree Of Inhibition Was Observed” in series [8]; “Active; Significant Inhibition Was Observed” in series [19]. Moreover, the inhibition entry in series [20] is on record as “Active; Certain Degree Of Inhibition Was Observed”; in series [25] it was “Active; Significant Inhibition Was Observed”. Moreover, the Stability result in series [2] is “Stable”. Besides, the result in series [5], in series [9], in series [10], in [12], in series [13] and in [15] was Active. Also, the outcome in [17], in series [18], in series [21] and in series [22] was Active. For the same compound, the Drug uptake entry in series [7], in series [14], in series [16] and in series [23] was “Active” each time. Further, the Activity in series [29] came to 0.7%. Moreover, the inhibition result in series [11] and in series [24] was “Active” throughout. In addition, the solubility result in series [26] was “soluble”.

Consider `COCCOCCOCCN1/C(=C/C=C/C=C/C=C/C2=[N+](CCOCCOCCOC)c3ccccc3C2(C)C)C(C)(C)c2ccccc21.[I-]`, for which the inhibition entry was “Active; Certain Degree Of Inhibition Was Observed” in [1]; “Active; Significant Inhibition Was Observed” in [3]; “Active; Certain Degree Of Inhibition Was Observed” in series [4]; “Active; Significant Inhibition Was Observed” in [6]; “Active; Certain Degree Of Inhibition Was Observed” in series [8]; “Active; Significant Inhibition Was Observed” in [19]. Besides, the inhibition result in series [20] was “Active; Certain Degree Of Inhibition Was Observed”; in series [25] it was “Active; Significant Inhibition Was Observed”. For the same compound, the Stability result in [2] is on record as “Unstable”. Also, the Activity entry in series [5] was “Active; Exhibited Highest Activity Among Tested Compounds”; in [10] it was “Active; Exhibited Highest Activity Among Tested Compounds”; in series [29] it was 5.2%; in series [15] it was “Active; Exhibited Highest Activity Among Tested Compounds”; in [27], “Active; Compound Was Less Photo-Thermally Effective But Showed Stronger Cell-Killing Ability”; in [21] it was “Active; Exhibited Highest Activity Among Tested Compounds”. Moreover, the Activity entry in series [28] is reported as “Active; Compound Was Less Photo-Thermally Effective But Showed Stronger Cell-Killing Ability”. Also, the Drug uptake result in series [7], in series [14], in series [16] and in series [23] was “Active” in each case. The inhibition entry in [11] and in [24] was “Active” throughout. Further, the outcome in series [12], in series [13], in series [17] and in series [18] was Active.

On to `CC1(C)C(/C=C/C=C/C=C/C=C2\N(CCCCS(=O)(=O)O)c3ccc4ccccc4c3C2(C)C)=[N+](CCCCS(=O)(=O)[O-])c2ccc3ccccc3c21`, for which the result in series [12] was Active. The result in series [18] was inactive.
